Test results from US7915242B2, “Vitamin D receptor antagonists and their use in treating asthma” (Wisconsin Alumni Research Foundation, priority 2004, dated 2011).
“Also recorded” adds a separate entry of the source.

Legend:
[1] = biological target: T1, full-length recombinant rat vitamin D receptor (Rattus norvegicus, UniProt P13053); experiment: Vitamin D receptor binding assay, competition with [3H]-1,25(OH)2D3; conditions: relative to 1α,25-dihydroxyvitamin D3; FIG. 1
T1 construct: Full-length recombinant rat receptor is/was expressed in E. coli BL21(DE3) Codon Plus RIL cells; histidine tag (C); made in house; host or cells: E. coli BL21(DE3) Codon Plus RIL
T1 sequence (P13053 1-423): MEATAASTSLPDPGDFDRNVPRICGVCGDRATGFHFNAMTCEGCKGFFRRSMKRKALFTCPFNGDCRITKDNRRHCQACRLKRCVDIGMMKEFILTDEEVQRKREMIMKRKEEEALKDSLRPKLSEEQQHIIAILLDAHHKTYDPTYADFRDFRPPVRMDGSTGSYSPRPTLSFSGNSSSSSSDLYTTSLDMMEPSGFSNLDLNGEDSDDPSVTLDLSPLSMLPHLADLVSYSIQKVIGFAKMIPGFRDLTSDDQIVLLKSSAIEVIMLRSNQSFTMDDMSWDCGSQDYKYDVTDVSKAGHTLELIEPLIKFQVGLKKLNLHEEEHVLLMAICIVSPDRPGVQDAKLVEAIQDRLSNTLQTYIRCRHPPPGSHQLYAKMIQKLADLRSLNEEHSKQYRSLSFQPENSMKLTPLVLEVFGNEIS
From the text: Full-length recombinant rat receptor is/was expressed in E. coli BL21(DE3) Codon Plus RIL cells and purified to homogeneity using two different column chromatography systems. The first system is/was a nickel affinity resin that utilizes the C-terminal histidine tag on this protein. The protein that is/was eluted from this resin is/was further purified using ion exchange chromatography (S-Sepharose Fast Flow). Aliquots of the purified protein are/were quick frozen in liquid nitrogen and stored at −80° C. until use. For use in binding assays, the protein is/was diluted in TEDK50 (50 mM Tris, 1.5 mM EDTA, pH 7.4, 5 mM DTT, 150 mM KCl) with 0.1% Chaps detergent. The receptor protein and ligan concentration is/was optimized such that no more than 20% of the added radiolabeled ligand is/was bound to the receptor.
Unlabeled ligands are/were dissolved in ethanol and the concentrations determined using UV spectrophotometry (1,25(OH)2D3: molar extinction coefficient=18,200 and λmax=265 nm; Analogs: molar extinction coefficient=42,000 and λmax=252 nm). […]
Radiolabeled and unlabeled ligands are/were added to 100 mcl of the diluted protein at a final ethanol concentration of ≦10%, mixed and incubated overnight on ice to reach binding equilibrium. […] Total binding is/was determined from the tubes containing only radiolabeled ligand.

Sprague-Dawley rats [2] = experiment: Bone calcium mobilization (serum calcium); format: in vivo, rat; conditions: four ip doses, even at 2,900 pmol/day, FIG. 7
Protocol: (§1) Male, weanling Sprague-Dawley rats are/were placed on Diet 11 (0.47% Ca) diet +AEK for one week followed by Diet 11 (0.02% Ca) +AEK for 3 weeks. The rats are/were then switched to a diet containing 0.47% Ca for one week followed by two weeks on a diet containing 0.02% Ca. Dose administration began during the last week on 0.02% calcium diet. Four consecutive ip doses are/were given approximately 24 hours apart. Twenty-four hours after the last dose, blood is/was collected from the severed neck, and the concentration of serum calcium is/was determined as a measure of bone calcium mobilization. The first 10 cm of the intestine is/was also collected for intestinal calcium transport analysis using the everted gut sac method.
(§2) Antagonism is/was tested by administering a combination of 1,25(OH)2D3 and the putative antagonist to the animal simultaneously.

[3] = system: Human promyelocytic leukemia (HL60) cells; experiment: HL-60 cellular differentiation test (NBT reduction); format: cell-based; conditions: relative to 1α,25-dihydroxyvitamin D3; FIGS. 2-3
Protocol: The compounds of the invention are/were dissolved in ethanol and the concentrations are/were determined using UV spectrophotometry. Serial dilutions are/were prepared so that a range of drug concentrations can be tested without changing the final concentration of ethanol (≦0.2%) present in the cell cultures.
Antagonism is/was tested by adding a combination of 1,25(OH)2D3 and the putative antagonist in the same well keeping the final ethanol concentration the same.
Human promyelocytic leukemia (HL60) cells are/were grown in RPMI-1640 medium containing 10% fetal bovine serum. The cells are/were incubated at 37° C. in the presence of 5% CO2.
HL60 cells are/were plated at 1.2×10^5 cells/mL. Eighteen hours after plating, cells in duplicate are/were treated with compound of the invention in ethanol. Four days post-dose, the cells are/were harvested and a nitro blue tetrazolium reduction assay is/was performed (Collins et al., J. Exp. Med. 149, 969-974, Appendix A (1979)). The percentage of differentiated cells is/was determined by counting a total of 200 cells and recording the number that contained intracellular black-blue formazan deposits. Verification of differentiation to monocytic cells is/was determined by measuring phagocytic activity. All drug concentrations are/were tested in duplicate.

[4] = system: vitamin D 24-hydroxylase (CYP24) promoter luciferase reporter; experiment: Reporter gene assay, CYP24 promoter-luciferase in ROS-17/2.8 osteoblast cells; format: cell-based; conditions: Ros17/2.8 (bone) cells; FIG. 4
From the text: A reporter gene assay is/was used in which the promoter to the vitamin D 24-hydroxylase, i.e. CYP24 is/was placed in front of a luciferase reporter and is/was permanently transfected into ROS-17/2.8 osteoblast cell cultures as previously described (see Arbour, N. C., T. K. Ross, C. Zierold, J. M. Prahl, and H. F. DeLuca. A Highly Sensitive Method for Large-Scale Measurements of 1,25-Dihydroxyvitamin D. Analyt. Biochem. 255, 148-154, (1998) which is hereby incorporated by reference in its entirety and for all purposes as if fully set forth herein). These cells are/were grown to almost confluency at which time the analog or the standard 1α,25-(OH)2D3 is/was added. After 4 hours of incubation, the cells are/were ruptured and luciferase is/was measured by the methods provided by the Promega Kit. These experiments show the level of activity of the vitamin D analogs of the invention at transcription.
The phrase “RLU” refers to relative luciferase units.

[5] = system: vitamin D 24-hydroxylase (CYP24) promoter luciferase reporter; experiment: Competition for transcription activity, analog plus 1,25(OH)2D3 in the reporter gene assay; format: cell-based; conditions: with 1α,25-dihydroxyvitamin D3; FIGS. 5-6
Protocol: Antagonism is/was tested by adding a combination of 1,25(OH)2D3 and the putative antagonist in the same well keeping the ethanol concentration the same.
The third test that is performed is competition for transcription activity. Again, the ROS-17/2.8 osteoblast cells that contain the reporter gene system described above are employed. A dose-response curve is constructed with 1α,25-(OH)2D3 and another 1α,25-(OH)2D3 dose response curve is prepared with increasing concentrations of antagonist or analogs of the invention. Analogs that prevent 1α,25-(OH)2D3-induced transcription, are defined using this technique as either weak agonist or a complete antagonist of the VDR for 1α,25-(OH)2D3.

Sprague-Dawley rats [6] = experiment: Intestinal calcium transport (everted gut sac); format: in vivo, rat; conditions: four ip doses, FIG. 8
Protocol: as §1, §2

Brown Norway rats = experiment: Ovalbumin-induced allergic asthma, BALF cell counts; format: in vivo, rat; conditions: aerosolized 500 ng/Kg on Days 14 and 16
Protocol: 6-7 week old Brown Norway male rats were obtained from Harlan Sprague-Dawley (Madison, Wis.) and housed in shoebox cages. Animals were provided a purified rodent diet prepared in-house containing 0.47% calcium and 0.3% phosphorus, and water ad libitum. The diet was supplemented with 1.6 IU vitamin D3/g. Rats were sensitized on Days 0 and 7 with a 1 mL intraperitoneal (I.P.) injection of 1 mg/mL OVA in phosphate-buffered saline (PBS) precipitated 1:1 with Imject Alum (PIERCE, IL). Control animals were sensitized with PBS. The animals were then challenged with aerosolized OVA [1% (w/v)] or aerosolized PBS (control) on Days 14 and 16. This OVA-sensitization and -challenge protocol has been used extensively to generate asthma symptoms in rats. Aerosolized-PBS (200 μL) or aerosolized-OVA (200 μL) was delivered by using the Microsprayer Syringe Model 1C (PennCentury, Philadelphia, Pa.). Aerosolized-vehicle [aqueous solution containing 30% (v/v) propylene glycol and 5% ethanol], or aerosolized-1,25(OH)2D3 (500 ng/Kg of body weight) was administered on Days 14 and 16. There were 4 groups in the study. Group 1: Sensitized and challenged with PBS, no treatment. Group 2: Sensitized and challenged with OVA, no treatment. Group 3: Sensitized and challenged with OVA, vehicle treatment on Days 14 and 16. Group 4: Sensitized and challenged with OVA, 1,25(OH)2D3 treatment on Days 14 and 16. At the end of the study, 17 days after the first I.P. injection, lungs were lavaged five times with 5 mL/each of calcium- and magnesium-free PBS containing 0.05 mM EDTA (ethylenediamine tetraacetic acid). The lavage fluid was centrifuged at 1,000×g for 10 minutes. The supernatant was removed, and the cell pellet was resuspended in 1 mL cold PBS. Total cell counts in bronchoalveolar lavage fluid (BALF) was performed using a hemocytometer. Slides of BALF were prepared by cytospin-2 cytocentrifugation of an aliquot of the cell suspension, and a differential cell count to determine the number of leukocytes was performed after staining with Diff-Quick (IMED, Inc., CA).

BALBc mice = experiment: Asthma model, ovalbumin-sensitized mice; format: in vivo, mouse; conditions: preliminary work
Protocol: The fourth test performed on the analogs is treatment using an asthma model. For this test, BALBc mice are injected for 7 days with 10 micrograms of ovalbumin together with alum to sensitize the animals. These are given by intraperitoneal injection and at the end of 7 days, the asthmatic reaction to an inhaled dose of ovalbumin is examined. In this test, the ovalbumin as a 0.2% solution is delivered by nebulizer to the mouse. Air flow measures are carried out as described by Isenberg-Feig et al. in Current Allergy and Asthma Reports, 3:70-78 (2003) which is hereby incorporated by reference in its entirety and for all purposes as if fully set forth herein. Furthermore, the lungs are removed and sectioned for analysis. The degree of invasion of eosinophils into the bronchial tissue is used as a non-subjective measurement of asthmatic response. After the animals are sensitized and given the expected responses to ovalbumin, the animals are subjected to an aerosol that includes either a vitamin D antagonist of the invention or 1α,25-(OH)2D3. After exposure to the vitamin D antagonist of the invention or the 1α,25-(OH)2D3, the animals will be exposed to a nebulized dose of 0.2% ovalbumin. The presence of the antagonist will be found to block the asthmatic response to the inhaled ovalbumin. […]

mouse model of asthma = conditions: Matheu et al., J Allergy Clin Immunol 112:585, 2003; cited from earlier work

Row | SMILES | binding to the vitamin D receptor (competition with [3H]-1,25-(OH)2-D3) [1] | bone calcium mobilization (calcemic activity) (Sprague-Dawley rats [2]) | induction of differentiation of HL-60 cells [3] | in vitro transcription activity (reporter gene) [4] | antagonistic activity on transcription when administered along with the native hormone [5] | intestinal calcium transport (Sprague-Dawley rats [6]) | total cell counts in BALF after OVA challenge (Brown Norway rats; FIG. 9) | number of eosinophils in BALF after OVA challenge (Brown Norway rats; FIG. 11) | number of macrophages in BALF after OVA challenge (Brown Norway rats; versus control (PBS), FIG. 10) | severity of the asthmatic response to ovalbumin (BALBc mice) | asthma symptoms in a mouse model of asthma (mouse model of asthma)
1 | C=C1[C@H](O)CC(=C/C=C2\CCC[C@]3(C)[C@@H]([C@H](C)/C=C/[C@@H](O)C4(C(=O)OCCCC)CC4)CC[C@@H]23)C[C@H]1O [OU-72, (22E)-(24R)-25-carbobutoxy-2-methylene-26,27-cyclo-22-dehydro-1α,24-dihydroxy-19-norvitamin D3] | approximately equal to the native hormone | no calcemic activity | less active than 1α,25-dihydroxyvitamin D3 | active in stimulating transcription | shows antagonistic activity | retain the ability to elevate intestinal calcium transport |  |  |  |  | 
2 | C=C1[C@H](O)CC(=C/C=C2\CCC[C@]3(C)[C@@H]([C@H](C)/C=C/[C@@H](OCCCC)C4(C(=O)OCCCC)CC4)CC[C@@H]23)C[C@H]1O [CN-67, (22E)-(24R)-24-butoxy-25-carbobutoxy-2-methylene-26,27-cyclo-22-dehydro-1α-hydroxy-19-norvitamin D3] | significantly less active than 1α,25-dihydroxyvitamin D3 |  | less active than 1α,25-dihydroxyvitamin D3 | does not appear to be active in causing transcription | appears to exhibit antagonistic activity |  |  |  |  |  | 
3 | C=C1/C(=C\C=C2/CCC[C@]3(C)[C@@H]([C@H](C)CCCC(C)(C)O)CC[C@@H]23)C[C@@H](O)C[C@@H]1O [1,25(OH)2D3, 1α,25-dihydroxycholecalciferol] |  |  |  |  |  |  | reduced; also recorded: inhibits the OVA (ovalbumin)-mediated increase in total number of cells in BALF | increased OVA-induced eosinophils recruitment; also recorded: increases the OVA-induced eosinophils count in BALF compared to the control | decreased the number of macrophages; also recorded: decreases the number of macrophages compared to the control | increases the severity of the asthmatic response to ovalbumin | both triggers and exacerbates asthma symptoms
